Reference: US12577235B2, “Crystalline form of CXCR2 antagonist and application thereof” (Shenzhen Optimum Biological Technology Co., Ltd, priority 2019, dated 2026)

Legend:
[1] = system: PPE-induced SD rat COPD model; assay: Therapeutic effect on PPE-induced COPD model; format: in vivo, SD rats; settings: dose not stated (technical effects summary)
Excerpt: • To test the therapeutic effect of the compound on PPE-induced SD rat COPD model. Materials: • Animals: SD rats (male, 160-180 g, 6 weeks age) • Test compounds: porcine pancreatic elastase (Sigma, 0.068 U/μL); Danirixin, compound 1. • Grouping: 1) vehicle group • 2) COPD model group (porcine pancreatic elastase modeling group/solvent group) • 3) PPE+Danirixin (30 mpk) • 4) PPE+compound 1 (10 mpk) • 5) PPE+compound 1 (30 mpk) Procedures: • 1. Modeling: PPE was given retrolingually. • 2. Administration: an aqueous solution of 1% DMSO/20% PEG400/79% (HP-b-CD) was used as the vehicle, and the drugs were administrated intragastrically everyday at a volume of 2 mL/rat for 4 weeks. • 3. Endpoint: On day 29, pulmonary function test, sample collection, and inflammatory cell count in bronchoalveolar lavage fluid.
Bronchoalveolar lavage: The rats were sacrificed, and dissected at the neck. Trachea intubation was performed. 1 mL of cold […] at 4° C. was infused for 3 lavages, and the lavage fluids were combined. The combined lavage fluids were centrifuged at 1200 rpm/min for 5 min, and the supernatant was discarded. The cell suspension was collected;

[2] = system: rat COPD model induced by smoking combined with lipopolysaccharide; assay: Anti-inflammation effect in rat COPD model induced by smoking combined with lipopolysaccharide; format: in vivo, SD rats
Method: Modeling: the animal model was prepared by exposing the rats to cigarette smoke once daily for 14 days. The rats were smoked for 90 min per day in 2 portions with a break of 10 min. 18 Marlboro cigarettes (with a tar content of 11 mg) were given each time. LPS was administered dropwise via airway at 200 μg/rat once weekly. The administration dropwise was performed on days 6 and 13 of smoke exposure (on the day of LPS administration dropwise, only LPS was administered dropwise for modeling without smoke exposure). • 2. Administration: an aqueous solution of 1% DMSO/20% PEG400/79% (HP-b-CD) was used as the vehicle, and the drugs were administrated intragastrically everyday at a volume of 5 mL/kg for 2 weeks. • 3. Endpoint: On day 15, pulmonary function test, sample collection, inflammatory cell count in bronchoalveolar lavage fluid, pathological analysis, and lung tissue MPO and MMP9 assay were carried out. Procedures of Pulmonary Function Test:
After the last smoking and modeling were finished, pulmonary function was tested for each group of animals on the second day, and pulmonary resistance and compliance were detected under stimulation of methacholine chloride at different doses. The animals were anesthetized by intraperitoneal injection with […] of 25% urethane. After the animals were deeply anesthetized, airway intubation was performed by separating airways, and meanwhile, jugular veins were separated. After breathing stably, the animals were put into a plethysmograph. Drug administration pipelines were inserted into the separated jugular veins. After the animals were in rest state for 1-2 min and the breathing curves were stable, then detection was started. Rats were administered with methacholine chloride at doses of 0, 0.0083, 0.025, 0.075, 0.225, 0.675 mg/kg by jugular vein intubation. The increase in airway resistance and decrease in pulmonary compliance were observed after each administration. After 1-2 min, the parameters returned to near the baseline of the previous concentration of methacholine chloride, and methacholine chloride of the next concentration was injected. After the detection was finished, subsequent alveolar lavage and sample collection were performed.
After the pulmonary function test was finished, the rats were sacrificed by cervical dislocation. After the animals were confirmed dead, the lungs were carefully separated, a lavage syringe was inserted into the main trachea and fixed with 2-0 silk thread. The right lung was ligated. 5 mL of low-temperature normal saline was slowly injected through the lavage syringe. The normal saline was slowly extracted after confirming that the normal saline was injected into the left lung. The operation was repeated twice. By the three lavages, a total of 15 mL of normal saline was injected for lavage. The obtained BALF was injected into a 15 mL centrifuge tube and preserved in a storage box at 4° C. for subsequent BALF cells counting.
After BALF was collected, the right lung which was not infused was taken off and weighted. The two upper lobes of the right lung were put into a cryopreservation tube, frozen in a freezer at −80° C. for later use. Lower lobe tissues were fixed in formalin.
1 mL of homogenously mixed BALF was added into 1 mL of a solution of 1% glacial acetic acid in normal saline. Cells were counted using a hemocytometer. The remaining lavage fluid was centrifuged at 1500 r/min for 10 min at 4° C. to give a cell mass. The cells were resuspended in 200 μL of normal saline, uniformly coated on a glass slide and stained by Wright-Giemsa stain. Macrophages, neutrophils and lymphocytes in a total of 200 cells were counted under a microscope, and the proportions of the cells was calculated. For lavage fluid collection, animals failing the lavage fluid collection were not summarized. […]

[3] = 10 mg/kg vs Danirixin at 30 mg/kg
[4] = 10 mg/kg, methacholine 0.025 mg/kg
[5] = 30 mg/kg vs Danirixin at 30 mg/kg
[6] = at various doses (3, 10, 30 mpk)

## O=C(Nc1ccc(Cl)c(S(=O)(=O)[C@H]2CCCNC2)c1O)N[C@@H]1CCCc2cc(C(F)(F)F)oc21 [crystalline form A]
[1]
  Number of neutrophils: significantly reduce the number of neutrophils
  Pulmonary function: significantly improve the pulmonary function
[2]; 3 mg/kg
  Pulmonary function improvement and anti-inflammatory effects (summary): significant pulmonary function improvement and anti-inflammatory effects
[2]; 3 mg/kg and 10 mg/kg vs Danirixin at 30 mg/kg
  Pulmonary resistance, effect relative to Danirixin: comparable to that of Danirixin
[2]; 3 mg/kg vs Danirixin at 30 mg/kg
  MPO content in lung tissues, effect relative to Danirixin: comparable effect
[2]; 3 mg/kg, methacholine 0.025 mg/kg
  Pulmonary resistance, methacholine-induced pulmonary function test: significant effects in improving the pulmonary resistance
[2]; [3]
  Lung tissue pathology score, effect relative to Danirixin: comparable of that of Danirixin
  MMP9 content in lung tissue, effect relative to Danirixin: comparable of that of Danirixin
  Number of leukocytes in BALF, effect relative to Danirixin: comparable effect
  Number of neutrophils in BALF, effect relative to Danirixin: comparable effect
  Pulmonary compliance, effect relative to Danirixin: comparable to that of Danirixin
[2]; [4]
  Pulmonary compliance, methacholine-induced pulmonary function test: significant effect in improving the pulmonary compliance
  Pulmonary resistance, methacholine-induced pulmonary function test: significant effects in improving the pulmonary resistance
[2]; [5]
  Lung tissue pathology score, effect relative to Danirixin: superior effect
  MMP9 content in lung tissue, effect relative to Danirixin: superior effect
[2]; 3, 10, 30 mpk
  Lung tissue pathology score, dose dependence: improved the pathology score in a dose-dependent manner
  MMP9 content in lung tissue, dose dependence: reduced the MMP9 content in lung tissue in a dose-dependent manner
  Number of neutrophils in BALF, dose dependence: reduced the number of neutrophils in a dose-dependent manner
[2]; Danirixin 30 mpk, crystalline form A 3-30 mpk
  Anti-inflammatory effect (summary): significant anti-inflammatory effect
[2]; at a lower dose than Danirixin
  Pharmacodynamic effect compared with Danirixin: equivalent pharmacodynamic effect
[2]; at the same dose as Danirixin
  Pharmacodynamic effect compared with Danirixin: superior pharmacodynamic effect
[2]; [6]
  MPO content in lung tissues: significantly reduce the MPO content
  Number of leukocytes in BALF: significantly reduce the number of leukocytes
[2]; down to 3 mg/kg
  Number of neutrophils in BALF: significant effect
[2]; down to 10 mg/kg
  Lung tissue pathology score: significant effect
  MMP9 content in lung tissue: significant effect
